Source: patent EP3868759A1, “2,3,5-SUBSTITUTED PYRROLO[2,3-B]PYRIDINES AS ERBB MODULATORS USEFUL FOR TREATING CANCER” (PearlRiver Bio GmbH, priority 2020, dated 2021)

Columns and labels:
Cuto-17 = test: CellTiter-Glo cell viability, Cuto-17; type: cell-based; settings: CUTO17, 72 h, read-out: Cuto-17 CTG IC50
Summary of the method: (§1)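 Cells seeded, incubated 24 h at 37°C/5% CO2, then dosed with compound in DMSO at various concentrations for 72 h. Viability read as ATP luminescence (CellTiter-Glo); DMSO and 10 µM staurosporine controls, IC50 from dose-response fit, runs accepted only with Z' ≥ 0.5.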

EGFR wt = EGFR wt (Homo sapiens, UniProt P00533); test: Lance assay, EGFR wt; settings: biochemical Lance assay
HER2 INS YVMA = target: T1, HER2 INS YVMA (Homo sapiens, UniProt P04626, INS775YVMA); test: Lance Kinase Activity Assay, Her2 Exon 20 InsYVMA; settings: biochemical Lance assay
T1 construct: purchased DPF
Summary of the method: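 TR-FRET (LANCE) assay: HER2 ex20 YVMA kinase phosphorylates ULight-peptide; compounds in 8-point 1:3 dilutions from 10 mM DMSO stock; ATP-started, 1 h at room temperature, stopped with EDTA plus Eu-anti-phosphopeptide antibody, 1 h more. Read 665/615 nm emission; IC50 from sigmoidal dose-response curves.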

EGFR T790M L858R = EGFR T790M L858R (Homo sapiens, UniProt P00533, L858R/T790M); test: Lance assay, EGFR T790M L858R; settings: biochemical Lance assay
EGFR (del746-750) = EGFR (del746-750) (Homo sapiens, UniProt P00533, DEL746-750); test: Lance assay, EGFR (del746-750); settings: biochemical Lance assay
EGFR L858R Ba/F3 = test: CellTiter-Glo cell viability, EGFR L858R Ba/F3; type: cell-based; settings: Mus musculus, BaF3, 72 h, read-out: EGFR L858R Ba/F3 CTG IC50 /
Protocol: (§2) The CellTiter-Glo Luminescent Cell Viability Assay (Promega) is a homogeneous method of determining the number of viable cells in culture. It is based on quantification of ATP, indicating the presence of metabolically active cells. Cells are seeded on day 1 at cell numbers that assure assay linearity and optimal signal intensity. After incubation for 24h in humidified chambers at 37°C and 5% CO2, compounds in DMSO are added at different concentrations. Cells are further incubated for 72 h at 37°C and 5% CO2. Cells treated with the compound vehicle DMSO are used as positive controls and cells treated with 10 µM Staurosporine serve as negative controls. At day 5 the CellTiter Glo Reagent is prepared according to the instructions of the kit (Promega Inc.): Reagent is mixed 1:1 with cell culture medium. Thereon, mixture and assay plates are equilibrated at room temperature for 20 min. Equal volumes of the reagent-medium-mixture is added to the volume of culture medium present in each well. The plates are mixed at ∼200 rpm for 2 minutes on an orbital shaker. The microplates are then incubated at room temperature for 10 minutes for stabilization of the luminescent signal. Following incubation the luminescence is recorded on a Victor microplate reader (Perkin Elmer) using a 200 ms integration time. The data is then analyzed with Excel using the XLFIT Plugin (dose response Fit 205) for IC50-determination. As quality control the Z'-factor is calculated from 16 positive and negative control values. Only assay results showing a Z'-factor ≥ 0.5 are used for further analysis.

A431 = test: CellTiter-Glo cell viability, A431; type: cell-based; settings: Homo sapiens, A-431, 72 h, read-out: A431 CTG IC50
Summary of the method: as §1

H1975 = test: CellTiter-Glo cell viability, H1975; type: cell-based; settings: Homo sapiens, NCI-H1975, 72 h, read-out: H1975 CTG IC50
Summary of the method: as §1

EGFR L858R T790M Ba/F3 = test: CellTiter-Glo cell viability, EGFR L858R T790M Ba/F3; type: cell-based; settings: Mus musculus, BaF3, 72 h, read-out: EGFR L858R T790M Ba/F3 CTG IC50 /
Protocol: as §2

EGFR L858R = EGFR L858R (Homo sapiens, UniProt P00533, L858R); test: Lance assay, EGFR L858R; settings: biochemical Lance assay
[1] = test system: EGFR Exon 20 InsNPH Ba/F3; test: CellTiter-Glo cell viability, EGFR Exon 20 InsNPH Ba/F3; type: cell-based; settings: Mus musculus, BaF3, 72 h, read-out: EGFR Exon 20 InsNPH Ba/F3 CTG IC50
Summary of the method: as §1

EGFR vIII Ba/F3 = test: CellTiter-Glo cell viability, EGFR vIII Ba/F3; type: cell-based; settings: Mus musculus, BaF3, 72 h, read-out: EGFR vIII Ba/F3 CTG IC50 /
Summary of the method: as §1

[2] = test system: Her2 Exon 20 InsYVMA Ba/F3; test: CellTiter-Glo cell viability, Her2 Exon 20 InsYVMA Ba/F3; type: cell-based; settings: Mus musculus, BaF3, 72 h, read-out: Her2 Exon 20 InsYVMA Ba/F3 CTG IC50
Summary of the method: as §1

T1 sequence (P04626 with tags, fused parts or gaps INS775YVMA): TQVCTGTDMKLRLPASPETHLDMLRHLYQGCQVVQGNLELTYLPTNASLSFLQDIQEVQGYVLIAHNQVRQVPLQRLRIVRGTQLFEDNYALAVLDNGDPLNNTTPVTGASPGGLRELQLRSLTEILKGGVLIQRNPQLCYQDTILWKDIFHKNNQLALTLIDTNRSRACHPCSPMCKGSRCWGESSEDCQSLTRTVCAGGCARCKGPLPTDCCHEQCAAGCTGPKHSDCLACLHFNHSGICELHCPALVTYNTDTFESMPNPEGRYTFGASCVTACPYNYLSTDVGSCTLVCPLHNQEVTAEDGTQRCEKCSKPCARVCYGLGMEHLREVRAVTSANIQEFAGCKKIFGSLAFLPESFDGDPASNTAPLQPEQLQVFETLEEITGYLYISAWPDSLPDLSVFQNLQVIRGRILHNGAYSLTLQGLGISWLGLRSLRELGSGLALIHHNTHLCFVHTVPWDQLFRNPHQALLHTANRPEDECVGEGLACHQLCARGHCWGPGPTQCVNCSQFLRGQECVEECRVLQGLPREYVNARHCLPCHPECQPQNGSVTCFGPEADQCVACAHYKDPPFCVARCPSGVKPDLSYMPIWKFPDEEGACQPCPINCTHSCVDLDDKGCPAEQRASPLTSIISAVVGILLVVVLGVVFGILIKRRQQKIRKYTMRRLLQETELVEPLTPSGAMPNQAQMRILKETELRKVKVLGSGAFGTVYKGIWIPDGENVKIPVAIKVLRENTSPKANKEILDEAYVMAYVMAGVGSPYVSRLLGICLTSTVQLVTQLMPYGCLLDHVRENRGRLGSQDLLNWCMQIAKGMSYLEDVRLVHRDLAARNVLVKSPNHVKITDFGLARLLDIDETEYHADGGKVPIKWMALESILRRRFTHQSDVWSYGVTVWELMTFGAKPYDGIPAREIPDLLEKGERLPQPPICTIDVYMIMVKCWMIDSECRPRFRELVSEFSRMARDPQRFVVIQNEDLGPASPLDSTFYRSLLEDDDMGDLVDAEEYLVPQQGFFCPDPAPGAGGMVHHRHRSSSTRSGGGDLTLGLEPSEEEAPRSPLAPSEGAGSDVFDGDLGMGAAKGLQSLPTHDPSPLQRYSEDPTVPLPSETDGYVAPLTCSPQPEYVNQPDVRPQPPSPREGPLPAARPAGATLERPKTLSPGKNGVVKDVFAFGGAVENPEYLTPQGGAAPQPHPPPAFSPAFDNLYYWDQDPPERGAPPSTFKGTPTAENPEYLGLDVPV
Chain of EGFR L858R (P00533 25-1210 L858R): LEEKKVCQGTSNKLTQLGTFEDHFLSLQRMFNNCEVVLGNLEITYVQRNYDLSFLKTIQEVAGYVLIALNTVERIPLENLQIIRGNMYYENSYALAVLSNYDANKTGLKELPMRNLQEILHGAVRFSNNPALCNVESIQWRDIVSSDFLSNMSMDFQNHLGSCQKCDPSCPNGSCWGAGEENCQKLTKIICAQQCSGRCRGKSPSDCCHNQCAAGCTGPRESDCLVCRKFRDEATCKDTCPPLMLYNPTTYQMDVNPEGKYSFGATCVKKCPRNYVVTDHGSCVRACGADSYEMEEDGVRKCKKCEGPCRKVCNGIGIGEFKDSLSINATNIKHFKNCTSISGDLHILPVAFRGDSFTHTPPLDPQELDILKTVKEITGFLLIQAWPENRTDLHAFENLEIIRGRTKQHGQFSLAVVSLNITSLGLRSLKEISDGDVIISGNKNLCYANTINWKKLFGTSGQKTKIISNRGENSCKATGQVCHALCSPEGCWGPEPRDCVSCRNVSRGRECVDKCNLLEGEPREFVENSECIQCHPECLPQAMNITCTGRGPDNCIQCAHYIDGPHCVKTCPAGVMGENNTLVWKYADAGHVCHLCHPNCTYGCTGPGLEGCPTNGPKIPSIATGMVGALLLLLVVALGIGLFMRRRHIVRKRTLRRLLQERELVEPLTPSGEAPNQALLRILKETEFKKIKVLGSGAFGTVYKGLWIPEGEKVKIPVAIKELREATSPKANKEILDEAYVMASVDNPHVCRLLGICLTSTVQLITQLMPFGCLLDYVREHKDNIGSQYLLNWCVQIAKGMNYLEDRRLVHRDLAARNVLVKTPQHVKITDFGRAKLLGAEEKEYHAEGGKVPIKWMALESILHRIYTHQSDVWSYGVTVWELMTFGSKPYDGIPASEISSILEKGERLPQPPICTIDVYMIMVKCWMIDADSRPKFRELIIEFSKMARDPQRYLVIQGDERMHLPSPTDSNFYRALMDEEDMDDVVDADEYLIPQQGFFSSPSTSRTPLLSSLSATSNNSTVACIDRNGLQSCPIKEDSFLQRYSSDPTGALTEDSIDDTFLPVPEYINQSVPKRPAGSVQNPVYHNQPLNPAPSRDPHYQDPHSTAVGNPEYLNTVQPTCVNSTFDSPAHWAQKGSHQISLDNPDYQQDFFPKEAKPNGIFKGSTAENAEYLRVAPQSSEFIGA
Chain of EGFR wt (P00533 25-1210): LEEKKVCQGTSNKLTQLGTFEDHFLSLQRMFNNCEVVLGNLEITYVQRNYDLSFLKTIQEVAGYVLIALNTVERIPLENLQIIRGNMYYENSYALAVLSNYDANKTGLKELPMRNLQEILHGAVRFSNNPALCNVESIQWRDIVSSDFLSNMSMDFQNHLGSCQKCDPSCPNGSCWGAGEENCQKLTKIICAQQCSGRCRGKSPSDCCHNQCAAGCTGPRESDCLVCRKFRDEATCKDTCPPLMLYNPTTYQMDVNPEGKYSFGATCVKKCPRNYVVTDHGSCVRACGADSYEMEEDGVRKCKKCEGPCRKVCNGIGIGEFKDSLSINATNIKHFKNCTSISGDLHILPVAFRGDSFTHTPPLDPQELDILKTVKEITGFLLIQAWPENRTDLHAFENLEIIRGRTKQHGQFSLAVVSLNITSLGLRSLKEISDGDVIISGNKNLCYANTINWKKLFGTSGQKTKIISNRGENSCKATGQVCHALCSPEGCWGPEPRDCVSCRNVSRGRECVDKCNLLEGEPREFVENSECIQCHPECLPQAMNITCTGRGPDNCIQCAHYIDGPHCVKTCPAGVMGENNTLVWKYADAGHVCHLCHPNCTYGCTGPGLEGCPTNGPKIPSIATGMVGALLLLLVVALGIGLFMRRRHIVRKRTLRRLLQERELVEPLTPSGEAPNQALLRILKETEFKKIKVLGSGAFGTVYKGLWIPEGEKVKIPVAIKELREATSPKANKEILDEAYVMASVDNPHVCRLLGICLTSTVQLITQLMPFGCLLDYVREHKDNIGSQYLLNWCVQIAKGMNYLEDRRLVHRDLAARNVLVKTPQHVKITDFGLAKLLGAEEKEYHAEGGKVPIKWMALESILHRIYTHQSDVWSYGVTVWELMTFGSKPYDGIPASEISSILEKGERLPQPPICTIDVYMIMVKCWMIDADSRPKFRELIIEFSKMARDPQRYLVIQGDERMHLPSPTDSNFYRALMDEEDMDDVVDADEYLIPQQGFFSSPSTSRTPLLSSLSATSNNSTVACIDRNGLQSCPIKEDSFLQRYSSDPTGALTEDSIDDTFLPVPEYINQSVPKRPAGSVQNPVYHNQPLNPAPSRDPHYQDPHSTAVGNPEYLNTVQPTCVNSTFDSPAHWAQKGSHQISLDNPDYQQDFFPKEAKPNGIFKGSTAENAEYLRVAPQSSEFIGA
Chain of EGFR T790M L858R (P00533 25-1210 T790M/L858R): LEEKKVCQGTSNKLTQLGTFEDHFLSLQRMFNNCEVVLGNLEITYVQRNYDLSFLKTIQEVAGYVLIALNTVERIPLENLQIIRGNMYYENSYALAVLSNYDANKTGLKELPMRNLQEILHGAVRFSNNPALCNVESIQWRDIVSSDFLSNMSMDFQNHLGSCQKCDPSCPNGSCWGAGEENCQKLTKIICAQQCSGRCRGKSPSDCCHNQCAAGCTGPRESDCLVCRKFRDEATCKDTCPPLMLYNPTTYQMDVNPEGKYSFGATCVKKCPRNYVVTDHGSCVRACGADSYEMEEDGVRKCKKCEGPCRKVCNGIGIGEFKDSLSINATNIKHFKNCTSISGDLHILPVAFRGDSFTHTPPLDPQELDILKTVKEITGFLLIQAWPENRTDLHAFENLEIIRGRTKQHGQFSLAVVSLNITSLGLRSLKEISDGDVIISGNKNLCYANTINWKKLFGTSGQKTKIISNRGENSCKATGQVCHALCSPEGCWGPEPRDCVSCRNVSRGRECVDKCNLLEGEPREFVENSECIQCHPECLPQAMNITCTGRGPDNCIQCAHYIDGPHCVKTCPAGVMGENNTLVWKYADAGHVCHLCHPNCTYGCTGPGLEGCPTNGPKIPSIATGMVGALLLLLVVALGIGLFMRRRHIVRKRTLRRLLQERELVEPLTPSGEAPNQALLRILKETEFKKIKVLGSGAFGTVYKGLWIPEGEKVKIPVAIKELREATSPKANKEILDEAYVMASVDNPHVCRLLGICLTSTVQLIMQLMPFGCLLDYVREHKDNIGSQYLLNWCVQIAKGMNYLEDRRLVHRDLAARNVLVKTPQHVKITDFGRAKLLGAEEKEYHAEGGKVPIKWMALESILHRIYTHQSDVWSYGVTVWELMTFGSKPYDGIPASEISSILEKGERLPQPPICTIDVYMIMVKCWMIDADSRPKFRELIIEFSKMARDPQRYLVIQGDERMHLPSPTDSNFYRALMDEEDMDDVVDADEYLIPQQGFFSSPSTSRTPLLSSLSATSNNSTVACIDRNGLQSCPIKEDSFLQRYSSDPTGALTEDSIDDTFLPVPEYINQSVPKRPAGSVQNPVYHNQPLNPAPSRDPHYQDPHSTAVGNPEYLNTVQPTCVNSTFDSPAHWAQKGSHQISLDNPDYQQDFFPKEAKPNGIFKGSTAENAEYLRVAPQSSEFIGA

For `C=CC(=O)Nc1cc(-c2c(-c3cnn(CC)c3)[nH]c3ncc(C(=O)OC(C)C)cc23)cc(F)c1C` [Example 5, isopropyl 3-(3-acrylamido-5-fluoro-4-methylphenyl)-2-(1-ethyl-1 H-pyrazol-4-yl)-1H-pyrrolo[2,3-b]pyridine-5-carboxylate], the IC50 (Cuto-17) was 100 to 500 nM, the IC50 (EGFR wt) was at most 50 nM and the IC50 (HER2 INS YVMA) was 50 to 100 nM. It also gave an IC50 (EGFR T790M L858R) of at most 50 nM, an IC50 (EGFR (del746-750)) of at most 50 nM and an IC50 (EGFR L858R Ba/F3) of at most 50 nM. It also gave an IC50 (A431) of 1000 to 10000 nM, an IC50 (H1975) of 500 to 1000 nM and an IC50 (EGFR L858R T790M Ba/F3) of at most 50 nM. The IC50 (EGFR L858R) was at most 50 nM, the IC50 [1] was 50 to 100 nM and the IC50 (EGFR vIII Ba/F3) was 100 to 500 nM. For the same molecule, the IC50 [2] was 50 to 100 nM.

With `C=CC(=O)Nc1cc(-c2c(-c3cnn(C)c3)[nH]c3ncc(C(=O)OC(C)C)c(C)c23)ccc1C` [Example 7, isopropyl 3-(3-acrylamido-4-methylphenyl)-4-methyl-2-(1-methyl-1H-pyrazol-4-yl)-1H-pyrrolo[2,3-b]pyridine-5-carboxylate2,2,2-trifluoroacetate] the IC50 (Cuto-17) was 100 to 500 nM, the IC50 (EGFR wt) was at most 50 nM and the IC50 (HER2 INS YVMA) was 100 to 500 nM. It also gave an IC50 (EGFR T790M L858R) of at most 50 nM, an IC50 (EGFR (del746-750)) of at most 50 nM and an IC50 (EGFR L858R Ba/F3) of at most 50 nM. It also gave an IC50 (A431) of 1000 to 10000 nM, an IC50 (H1975) of 100 to 500 nM and an IC50 (EGFR L858R T790M Ba/F3) of 50 to 100 nM. The IC50 (EGFR L858R) was at most 50 nM, the IC50 [1] was 50 to 100 nM and the IC50 (EGFR vIII Ba/F3) was 50 to 100 nM. For the same molecule, the IC50 [2] was 100 to 500 nM.

For `C=CC(=O)Nc1cc(-c2c(-c3cnn(CCN(C)C)c3)[nH]c3ncc(C(=O)OC(C)C)c(C)c23)ccc1C` [Example 15, isopropyl 3-(3-acrylamido-4-methylphenyl)-2-(1-(2-(dimethylamino)ethyl)-1 H-pyrazol-4-yl)-4-methyl-1 H-pyrrolo[2,3-b]pyridine-5-carboxylate], the IC50 (Cuto-17) was 100 to 500 nM, the IC50 (EGFR wt) was at most 50 nM and the IC50 (HER2 INS YVMA) was at most 50 nM. For the same molecule, the IC50 (EGFR T790M L858R) was at most 50 nM, the IC50 (EGFR (del746-750)) was at most 50 nM and the IC50 (EGFR L858R Ba/F3) was at most 50 nM. The IC50 (A431) was 1000 to 10000 nM, the IC50 (H1975) was 100 to 500 nM and the IC50 (EGFR L858R T790M Ba/F3) was at most 50 nM. For the same molecule, the IC50 (EGFR L858R) was at most 50 nM, the IC50 [1] was 50 to 100 nM and the IC50 (EGFR vIII Ba/F3) was 50 to 100 nM. For the same molecule, the IC50 [2] was 100 to 500 nM.
